The structures appear in SMILES notation.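 Protocol summary: plate cells (96-well), add compound at 5 concentrations, incubate 48 h, interpolate endpoints linearly. Abbreviation: GI50, concentration required for 50% inhibition of growth. Definition used: TGI = concentration required for complete inhibition of growth.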 Where only a bound is given, the exact number is not on record here.

Among the test systems are SN12C renal; A498 renal; CAKI-1 renal; SW-620 colon; HL-60(TB) leukemia; OVCAR-5 ovarian; TK-10 renal; A549 NSCLC; BT-549 breast; SF-539 CNS.
What all share (test): NCI anticancer screen, dose series, 48 h

With `COc1ccc2c(=O)cc(-c3ccncc3)oc2c1OC`, the TGI in the experiment on SN12C renal was > 100 µM; in the experiment with A498 renal, 49.8 µM; in the experiment on CAKI-1 renal, > 100 µM; in the experiment on SW-620 colon, > 100 µM; in the experiment with HL-60(TB) leukemia, 50.6 µM; with OVCAR-5 ovarian, > 100 µM. For the same compound, the values for the TGI in the experiment with TK-10 renal, in the experiment on A549 NSCLC and in the experiment with BT-549 breast were > 100 µM, > 100 µM and 98.4 µM, respectively.

With `COc1ccc(/C=C/C(=O)c2ccc(O)c(CN3CCN(c4cc5c(cc4F)c(=O)c(C(=O)O)cn5C4CC4)CC3)c2)cc1`, the GI50 with A498 renal is 1.34 µM; in the experiment with CAKI-1 renal it was 2.35 µM; in the experiment on SW-620 colon, 1.38 µM; with OVCAR-5 ovarian, 4.61 µM; in the experiment with SF-539 CNS it was 0.407 µM; with TK-10 renal, 7.16 µM. Further, the GI50 is 3.69 µM in the experiment with A549 NSCLC and 1.28 µM in the experiment on BT-549 breast. Further, the TGI in the experiment on A498 renal is 5.54 µM; in the experiment with CAKI-1 renal, > 100 µM; in the experiment with SW-620 colon, > 100 µM; in the experiment with OVCAR-5 ovarian, > 100 µM; in the experiment on SF-539 CNS, > 100 µM; with TK-10 renal it was 74.6 µM. Moreover, the TGI in the experiment with A549 NSCLC and in the experiment on BT-549 breast was > 100 µM in each case.

As to `O=C(O)c1cc2ccc3ccccc3c2oc1=O`, the TGI with SN12C renal, in the experiment on A498 renal, in the experiment on SW-620 colon, in the experiment with HL-60(TB) leukemia, with OVCAR-5 ovarian and with SF-539 CNS was > 100 µM each time. In addition, the TGI in the experiment on TK-10 renal, in the experiment with A549 NSCLC and in the experiment with BT-549 breast was > 100 µM throughout.

On to `O=c1cc(-c2ccccc2F)[nH]c2ccc(N3CCCC3)cc12`, for which the GI50 is < 0.001 µM with SN12C renal; 7.32 µM in the experiment on A498 renal; < 0.001 µM in the experiment with HL-60(TB) leukemia; 2.53 µM in the experiment on OVCAR-5 ovarian; 74.9 µM with TK-10 renal; < 0.001 µM in the experiment with A549 NSCLC. Besides, the TGI in the experiment with SN12C renal is > 100 µM; in the experiment with A498 renal, > 100 µM; in the experiment with SW-620 colon it was > 100 µM; in the experiment on OVCAR-5 ovarian it was > 100 µM; with SF-539 CNS, 0.0134 µM; in the experiment with TK-10 renal, > 100 µM. Besides, the TGI with A549 NSCLC and with BT-549 breast was > 100 µM in each case.

For the compound `COc1c(O)cc2oc(-c3ccc(O)cc3)cc(=O)c2c1O`, the TGI was > 100 µM with SN12C renal; 16.1 µM with A498 renal; > 100 µM in the experiment on SW-620 colon; > 100 µM with HL-60(TB) leukemia; > 100 µM in the experiment with OVCAR-5 ovarian; > 100 µM with SF-539 CNS. Besides, the TGI with TK-10 renal, in the experiment on A549 NSCLC and with BT-549 breast was > 100 µM each time.

With `COc1cccc2c1ccc1nc3cccc(C(=O)N[C@H](C)CN(C)C)c3nc12`, the GI50 with SN12C renal is 0.0879 µM; in the experiment with A498 renal, 0.0793 µM; in the experiment on SW-620 colon, 0.039 µM; with HL-60(TB) leukemia, 0.32 µM; in the experiment on OVCAR-5 ovarian it was 0.154 µM; in the experiment with SF-539 CNS it was 0.157 µM. Further, the GI50 is 0.0762 µM with TK-10 renal, 0.0402 µM in the experiment with A549 NSCLC and 0.795 µM with BT-549 breast. For the same compound, the TGI was determined as 11.7 µM in the experiment with SN12C renal; 0.235 µM in the experiment with A498 renal; 0.694 µM with SW-620 colon; 1.98 µM in the experiment with HL-60(TB) leukemia; 11.3 µM with OVCAR-5 ovarian; 1.8 µM in the experiment on SF-539 CNS. Further, the TGI in the experiment with TK-10 renal was found to be 0.512 µM; in the experiment on A549 NSCLC, 1.99 µM; in the experiment with BT-549 breast, 2.93 µM.

Regarding `Cc1cc(O)c(C2=NN(c3ccc(S(N)(=O)=O)cc3)C(c3ccccc3Cl)C2)cc1Cl` (stereo not drawn), the GI50 was 2.55 µM in the experiment with SN12C renal; 5.01 µM with A498 renal; 1.78 µM in the experiment on CAKI-1 renal; 3.44 µM in the experiment on HL-60(TB) leukemia; 1.74 µM with OVCAR-5 ovarian; 1.79 µM in the experiment with SF-539 CNS. The GI50 with TK-10 renal is 2.64 µM; in the experiment with A549 NSCLC, 3.82 µM; in the experiment on BT-549 breast, 2.16 µM. The TGI was 6.32 µM with SN12C renal; 20.5 µM in the experiment on A498 renal; 3.99 µM in the experiment on CAKI-1 renal; > 100 µM in the experiment with HL-60(TB) leukemia; 3.3 µM with OVCAR-5 ovarian; 3.25 µM in the experiment with SF-539 CNS. Moreover, the results for the TGI with TK-10 renal, in the experiment with A549 NSCLC and in the experiment with BT-549 breast were 5.86 µM, 19.3 µM and 4.74 µM, respectively.

Regarding `CCCc1cc(=O)[nH]c(-n2nc(C)cc2C)n1`, the GI50 with SN12C renal is 4.75 µM; in the experiment with A498 renal it was 11.7 µM; in the experiment on CAKI-1 renal, 2.47 µM; in the experiment with SW-620 colon, 3.93 µM; in the experiment on HL-60(TB) leukemia, 2.04 µM; in the experiment on OVCAR-5 ovarian it was 28 µM. For the same compound, the GI50 in the experiment with SF-539 CNS is 2.99 µM; in the experiment on A549 NSCLC, 2.71 µM; in the experiment on BT-549 breast, 6.86 µM. In addition, the TGI in the experiment with SN12C renal was > 100 µM; in the experiment with A498 renal, > 100 µM; with CAKI-1 renal it was 26.3 µM; with SW-620 colon it was > 100 µM; in the experiment on HL-60(TB) leukemia, 20.7 µM; with OVCAR-5 ovarian, > 100 µM. The TGI with SF-539 CNS, in the experiment with A549 NSCLC and with BT-549 breast was > 100 µM each time.

Regarding `CCn1cc(C(=O)N/N=C/c2ccccc2)c(=O)c2cc(F)c(N3CCNC(C)C3)c(F)c21` (stereo not drawn), the GI50 with A498 renal is 1.9 µM; in the experiment with CAKI-1 renal it was 1.75 µM; with SW-620 colon it was 1.76 µM; in the experiment with OVCAR-5 ovarian, 1.64 µM; in the experiment with SF-539 CNS, 1.7 µM; in the experiment with TK-10 renal, 1.71 µM. Also, in the experiment with BT-549 breast, the GI50 was 1.6 µM. Besides, the TGI with A498 renal was determined as 3.38 µM; with CAKI-1 renal it was 3.14 µM; in the experiment with SW-620 colon, 3.31 µM; with OVCAR-5 ovarian it was 3.05 µM; with SF-539 CNS, 3.11 µM; in the experiment on TK-10 renal, 3.24 µM. The same compound yielded a TGI with BT-549 breast of 3 µM.

On to `CCOC(=O)c1c2c(n(Cc3ccc(Cl)cc3Cl)c1C)-c1nc[nH]c1C(=O)C2=O`, for which the GI50 with SN12C renal was 3.02 µM; in the experiment with A498 renal, 19.7 µM; in the experiment on CAKI-1 renal it was 13.4 µM; with SW-620 colon, 6.19 µM; in the experiment with HL-60(TB) leukemia, 2.18 µM; in the experiment with SF-539 CNS, 4.4 µM. Further, the results for the GI50 in the experiment on TK-10 renal, in the experiment on A549 NSCLC and with BT-549 breast were 20.1 µM, 10.9 µM and 15.5 µM, respectively. The TGI with SN12C renal is 13.1 µM; in the experiment on A498 renal, 36.1 µM; with CAKI-1 renal, 31.8 µM; in the experiment on SW-620 colon, 18.2 µM; in the experiment on HL-60(TB) leukemia, 5.14 µM; in the experiment with SF-539 CNS it was 16.4 µM. Moreover, the TGI in the experiment on TK-10 renal was 41.2 µM; with A549 NSCLC, 23.1 µM; in the experiment with BT-549 breast it was 31.8 µM.

(Values after PubChem BioAssay (NCI).)
